Measurements: patent US11214805B2, “Targeted nanocarriers for the administration of immunosuppressive agents” (MUSC FOUNDATION FOR RESEARCH DEVELOPMENT, priority 2014, dated 2022)

Key:
[1] = test system: MHC I; experiment: Western blot of MHC I in lysates of HUVEC treated with pro-inflammatory cytokine cocktail; format: cell-based, Human; settings: IL-1β, INFγ, TNFα cocktail; 10 or 100 ng/mL
Protocol: Cells were then lysed using mammalian protein extraction reagent (Pierce, Ill.) supplemented with Halt Protease and Phosphatase Inhibitor Cocktails. Lysates were centrifuged at 10,000 rpm for 15 minutes. All western blot reagents were purchased from Bio-Rad (CA) unless specified. The protein concentration of each lysate was determined via Bradford calorimetric Assay (Thermo Scientific, PA; 232225), and 1.6 μg of protein from each whole cell lysate was added to a 4-20% precast gel and subjected to SDS-page electrophoresis. Protein was transferred to a PVDF membrane by semi-dry transfer, where it was stained with anti-MHC class I antibody (W6) and blocked overnight with TBS-T (Tris-Buffered Saline-Tween 20) containing 5% nonfat dry milk and 0.5% BSA. An appropriate HRP-conjugated secondary antibody was added to fresh block solution at a 1:1000 dilution to incubate for 1 hour at room temperature. The protein band was then detected by enhanced chemiluminescence (ECL).

[2] = test system: transplanted tracheas (chronic rejection); settings: graft stored 4 hrs at 4° C. in UW solution with additive; harvested 28 days after transplantation
Excerpt: Twenty eight days later transplanted tracheas were harvested and assessed for the degree of chronic rejection.

CO[C@H]1C[C@@H]2CC[C@@H](C)[C@@](O)(O2)C(=O)C(=O)N2CCCC[C@H]2C(=O)O[C@H]([C@H](C)C[C@@H]2CC[C@@H](O)[C@H](OC)C2)CC(=O)[C@H](C)/C=C(\C)[C@@H](O)[C@@H](OC)C(=O)[C@H](C)C[C@H](C)/C=C/C=C/C=C/1C [free rapamycin, rapamycin]
level of MHC I expression in HUVEC [1]: able to down regulate | degree of chronic rejection (fibrosis, inflammation, epithelium) as compared to UW alone [2]: reduced fibrosis, inflammation and preserved normal pseudo stratified respiratory epithelium
